Experimental data published in PubChem BioAssay (NCI).
Where “and” joins values, the source holds several entries; their conditions need not be identical. Equal entries are not always repeated.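 At the GI50, growth is halved. Definition used: TGI = concentration required for complete inhibition of growth.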

How the values were obtained:
Assay in all cases: inhibition of tumour cell growth, NCI panel, 384-well format
[1] = system: 786-0 renal
[2] = system: M14 melanoma
[3] = system: SK-OV-3 ovarian
[4] = system: MALME-3M melanoma
[5] = system: OVCAR-8 ovarian
[6] = system: CCRF-CEM leukemia
[7] = system: OVCAR-3 ovarian
[8] = system: HOP-92 NSCLC
[9] = system: SNB-75 CNS
[10] = system: HOP-62 NSCLC
[11] = system: HT29 colon
[12] = system: CAKI-1 renal
[13] = system: SK-MEL-28 melanoma
[14] = system: NCI-H23 lung
[15] = system: HCT-116 colon
[16] = system: SF-268 CNS
[17] = system: ACHN renal
[18] = system: NCI-H322M lung
[19] = system: MDA-MB-468 breast
[20] = system: A549 NSCLC
[21] = system: SN12C renal
[22] = system: UACC-62 melanoma
[23] = system: SW-620 colon
[24] = system: MDA-MB-435 melanoma
[25] = system: A498 renal
[26] = system: PC-3 prostate
[27] = system: HS 578T breast
[28] = system: KM12 colon
[29] = system: NCI-H522 lung
[30] = system: COLO 205 colon
[31] = system: HL-60(TB) leukemia
[32] = system: U251 glioblastoma
[33] = system: NCI-H460 NSCLC
[34] = system: EKVX NSCLC
[35] = system: TK-10 renal
[36] = system: SF-295 CNS
[37] = system: NCI-H226 lung
[38] = system: SNB-19 CNS
[39] = system: IGROV1 ovarian
[40] = system: DU-145 prostate
[41] = system: OVCAR-4 ovarian
[42] = system: HCT-15 colon
[43] = system: LOX IMVI melanoma
[44] = system: UACC-257 melanoma
[45] = system: RXF 393 renal
[46] = system: RPMI-8226 leukemia
[47] = system: SK-MEL-5 melanoma
[48] = system: SF-539 CNS
[49] = system: BT-549 breast
[50] = system: MCF7 breast
[51] = system: NCI/ADR-RES ovarian
[52] = system: SK-MEL-2 melanoma
[53] = system: MOLT-4 leukemia
[54] = system: K-562 leukemia
[55] = system: HCC-2998 colon
[56] = system: T-47D breast
[57] = system: UO-31 renal
[58] = system: OVCAR-5 ovarian
[59] = system: MDA-MB-231 breast

Cc1ccc(S(=O)(=O)Oc2ccc3sc4c(CO)ccc(NCCN(C)C)c4c(=O)c3c2)cc1
GI50 [1]: 1850 nM | TGI [1]: 3270 nM | GI50 [2]: 2160 nM | TGI [2]: 3610 nM | GI50 [3]: 1940 nM | TGI [3]: 3380 nM | GI50 [4]: 2150 nM | TGI [4]: 3610 nM | GI50 [5]: 1630 nM | TGI [5]: 3020 nM | GI50 [6]: 1620 nM | TGI [6]: 2990 nM | GI50 [7]: 1970 nM | TGI [7]: 3390 nM | GI50 [8]: 2120 nM | TGI [8]: 3570 nM | GI50 [9]: 2350 nM | TGI [9]: 3820 nM | GI50 [10]: 2080 nM | TGI [10]: 3520 nM | GI50 [11]: 1800 nM | TGI [11]: 3210 nM | GI50 [12]: 1900 nM | TGI [12]: 3340 nM | GI50 [13]: 2160 nM | TGI [13]: 3620 nM | GI50 [14]: 2030 nM | TGI [14]: 3460 nM | GI50 [15]: 2140 nM | TGI [15]: 3620 nM | GI50 [16]: 2200 nM | TGI [16]: 3660 nM | GI50 [17]: 1890 nM | TGI [17]: 3330 nM | GI50 [18]: 2120 nM | TGI [18]: 3570 nM | GI50 [19]: 3820 nM | TGI [19]: 5270 nM | GI50 [20]: 1840 nM | TGI [20]: 3280 nM | GI50 [21]: 1640 nM | TGI [21]: 3010 nM | GI50 [22]: 2100 nM | TGI [22]: 3560 nM | GI50 [23]: 1840 nM | TGI [23]: 3270 nM | GI50 [24]: 2130 nM | TGI [24]: 3570 nM | GI50 [25]: 1980 nM | TGI [25]: 3410 nM | GI50 [26]: 2010 nM | TGI [26]: 3450 nM | GI50 [27]: 2010 nM | TGI [27]: 3450 nM | GI50 [28]: 1870 nM | TGI [28]: 3300 nM | GI50 [29]: 2200 nM | TGI [29]: 3660 nM | GI50 [30]: 2140 nM | TGI [30]: 3600 nM | GI50 [31]: 1590 nM | TGI [31]: 2950 nM | GI50 [32]: 2220 nM | TGI [32]: 3700 nM | GI50 [33]: 1900 nM | TGI [33]: 3340 nM | GI50 [34]: 1880 nM | TGI [34]: 3300 nM | GI50 [35]: 1990 nM | TGI [35]: 3410 nM | GI50 [36]: 1960 nM | TGI [36]: 3380 nM | GI50 [37]: 1470 nM | TGI [37]: 2800 nM | GI50 [38]: 2210 nM | TGI [38]: 3690 nM | GI50 [39]: 1790 nM | TGI [39]: 3180 nM | GI50 [40]: 2090 nM | TGI [40]: 3540 nM | GI50 [41]: 2240 nM | TGI [41]: 3700 nM | GI50 [42]: 2070 nM | TGI [42]: 3530 nM | GI50 [43]: 1710 nM | TGI [43]: 3110 nM | GI50 [44]: 2840 nM | TGI [44]: 4320 nM | GI50 [45]: 1990 nM | TGI [45]: 3420 nM | GI50 [46]: 1920 nM | TGI [46]: 3330 nM | GI50 [47]: 1640 nM | TGI [47]: 3020 nM | GI50 [48]: 2080 nM | TGI [48]: 3540 nM | GI50 [49]: 1890 nM | TGI [49]: 3310 nM | GI50 [50]: 1720 nM | TGI [50]: 3110 nM | GI50 [51]: 2060 nM | TGI [51]: 3500 nM | GI50 [52]: 2070 nM | TGI [52]: 3510 nM | GI50 [53]: 1790 nM | TGI [53]: 3180 nM | GI50 [54]: 1910 nM | TGI [54]: 3330 nM | GI50 [55]: 1940 nM | TGI [55]: 3360 nM

CNC(=O)c1ccc(Nc2ncc(C(F)(F)F)c(NCc3nccnc3N(C)S(C)(=O)=O)n2)cc1
GI50 [1]: 2400 nM and 2390 nM | TGI [1]: 10800 nM and 8970 nM | GI50 [2]: 1290 nM and 1530 nM | TGI [2]: 3780 nM and 4150 nM | GI50 [3]: 1310 nM and 1770 nM | TGI [3]: 5300 nM and 9750 nM | GI50 [4]: 2120 nM and 2650 nM | TGI [4]: 4880 nM and 6180 nM | GI50 [5]: 2730 nM and 3010 nM | TGI [5]: 7710 nM and 8760 nM | GI50 [6]: 1710 nM and 2100 nM | TGI [6]: 3280 nM and 3730 nM | GI50 [7]: 1420 nM and 1980 nM | TGI [7]: 3940 nM and 4840 nM | GI50 [8]: 2210 nM and 2540 nM | TGI [8]: 6440 nM and 6500 nM | GI50 [9]: 1280 nM and 1780 nM | TGI [9]: 3690 nM and 4750 nM | GI50 [10]: 2040 nM and 2110 nM | TGI [10]: 6310 nM and 7250 nM | GI50 [56]: 2500 nM and 2670 nM | TGI [56]: 6900 nM and 7180 nM | GI50 [11]: 2110 nM and 2250 nM | TGI [11]: 5190 nM and 5710 nM | GI50 [57]: 1820 nM and 1980 nM | TGI [57]: 4840 nM and 4750 nM | GI50 [12]: 1300 nM and 1480 nM | TGI [12]: 4510 nM and 4900 nM | GI50 [13]: 1780 nM and 2340 nM | TGI [13]: 3650 nM and 4720 nM | GI50 [14]: 1590 nM and 1740 nM | TGI [14]: 3170 nM and 3430 nM | GI50 [15]: 1750 nM and 1940 nM | TGI [15]: 6220 nM and 4860 nM | GI50 [16]: 1030 nM and 681 nM | TGI [16]: 2350 nM and 2260 nM | GI50 [17]: 1910 nM and 2090 nM | TGI [17]: 9330 nM and 9550 nM | GI50 [18]: 2040 nM and 2200 nM | TGI [18]: 5320 nM and 6000 nM | GI50 [19]: 1350 nM and 1790 nM | TGI [19]: 2950 nM and 3710 nM | GI50 [20]: 2350 nM and 2240 nM | TGI [20]: 6470 nM and 6060 nM | GI50 [21]: 1940 nM and 2360 nM | TGI [21]: 4120 nM and 4970 nM | GI50 [22]: 1190 nM and 1400 nM | TGI [22]: 2490 nM and 2810 nM | GI50 [23]: 2020 nM and 2460 nM | TGI [23]: 4390 nM and 5130 nM | GI50 [58]: 2140 nM and 2410 nM | TGI [58]: 6770 nM and 7250 nM | GI50 [24]: 2880 nM and 4550 nM | TGI [24]: 11800 nM and 14400 nM | GI50 [25]: 1080 nM and 1350 nM | TGI [25]: 4630 nM and 5830 nM | GI50 [26]: 2110 nM and 3350 nM | TGI [26]: 6150 nM and 10700 nM | GI50 [27]: 1300 nM and 449 nM | TGI [27]: 3100 nM and 2420 nM | GI50 [28]: 250 nM and 239 nM | TGI [28]: 2360 nM and 2860 nM | GI50 [29]: 1940 nM and 2470 nM | TGI [29]: 3630 nM and 4420 nM | GI50 [30]: 2030 nM and 2410 nM | TGI [30]: 5340 nM and 5980 nM | GI50 [31]: 1610 nM and 2020 nM | TGI [31]: 2970 nM and 3470 nM | GI50 [32]: 2170 nM and 2960 nM | TGI [32]: 7560 nM and 10200 nM | GI50 [33]: 1470 nM and 1670 nM | TGI [33]: 3130 nM and 3370 nM | GI50 [34]: 1580 nM and 1890 nM | TGI [34]: 4560 nM and 5270 nM | GI50 [35]: 1770 nM and 2240 nM | TGI [35]: 5220 nM and 6820 nM | GI50 [36]: 2720 nM and 2750 nM | TGI [36]: 9230 nM and 8160 nM | GI50 [37]: 2050 nM | TGI [37]: 11900 nM and 7960 nM | GI50 [38]: 3050 nM and 3920 nM | TGI [38]: 13300 nM and 12400 nM | GI50 [39]: 558 nM and 673 nM | TGI [39]: 5910 nM and 8380 nM | GI50 [40]: 1710 nM and 2200 nM | TGI [40]: 10700 nM and 11100 nM | GI50 [41]: 2310 nM and 3190 nM | TGI [41]: 10200 nM and 14100 nM | GI50 [42]: 1840 nM and 2790 nM | TGI [42]: 5700 nM and 8920 nM | GI50 [43]: 1530 nM and 1650 nM | TGI [43]: 3340 nM and 3520 nM | GI50 [44]: 2060 nM and 2930 nM | TGI [44]: 5320 nM and 8360 nM | GI50 [59]: 2380 nM and 3040 nM | TGI [59]: 11700 nM and 14600 nM | GI50 [45]: 1150 nM and 1170 nM | TGI [45]: 2710 nM and 2730 nM | GI50 [46]: 1810 nM and 2260 nM | TGI [46]: 3210 nM and 3750 nM | GI50 [47]: 1340 nM and 1250 nM | TGI [47]: 2690 nM and 2640 nM | GI50 [48]: 1550 nM and 1950 nM | TGI [48]: 3290 nM and 3850 nM | GI50 [49]: 1580 nM and 1990 nM | TGI [49]: 3400 nM and 4080 nM | GI50 [50]: 2210 nM and 1900 nM | TGI [50]: 7680 nM and 5850 nM | GI50 [51]: 13500 nM and 16000 nM | TGI [51]: 40500 nM and 35500 nM | GI50 [53]: 1950 nM and 2160 nM | TGI [53]: 3580 nM and 3840 nM | GI50 [54]: 3450 nM and 3440 nM | TGI [54]: 16800 nM | GI50 [55]: 1500 nM and 1740 nM | TGI [55]: 4340 nM and 4680 nM
